From PMC5216742, “Discovery and characterization of a novel potent type II native and mutant BCR-ABL inhibitor (CHMFL-074) for Chronic Myeloid Leukemia (CML)” (Oncotarget, 2016)
Several values for one entry are separate records, joined by “and”; a condition that tells them apart may be missing. Identical values can stand only once. Entries after “also recorded” stand apart in the source; their conditions may differ.

Legend:
[1] = molecular target: T1, ABL1(H396P)-phosphorylated (Homo sapiens, UniProt P00519, H396P); assay: KinomeScan profiling; assay type: binding; settings: 1 µM CHMFL-074; read-out: % Control
T1 construct: purchased DiscoveRx (KinomeScan service)

[2] = tested on: K562, KU812 and MEG-01 cells; assay: Cell cycle analysis; assay type: cell-based; settings: K562 (24 h), KU812 (12 h), MEG-01 (24 h)
Description: K562, KU812 and MEG01 cells were treated with serially diluted CHMFL-074 for 12 or 24 hours. The cells were fixed in 70% cold ethanol and incubated at −20°C overnight, then stained with PI/RNase staining buffer (BD Pharmingen). Flow cytometry was performed using a FACS Calibur (BD), and results were analyzed by ModFit software.

MEG-01 = assay: Colony formation assay; assay type: cell-based; settings: Homo sapiens
Description: (§1) In brief, 1 mL of 3% agarose combined with 1 mL KU812, MEG01, or K562 growth media was used as the bottom agar in a 6-well plate. 800 cells in 1.7 mL growth media was combined with 0.3 ml of 3% agarose solution and plated on top of the bottom layer. Cells were maintained in a humidified 5% CO2 incubator at 37°C for 15 days, and continuously treated with serially diluted CHMFL-074 in a soft agar medium. On the 15th day, the number of colonies in each well were counted and each measurement was performed in triplicate.

K562 = assay: Colony formation assay; assay type: cell-based; settings: Homo sapiens
Description: as §1

KU812 = assay: Colony formation assay; assay type: cell-based; settings: Homo sapiens
Description: as §1

[3] = molecular target: T2, ABL1(Q252H)-phosphorylated (Homo sapiens, UniProt P00519, Q252H); assay: KinomeScan profiling; assay type: binding; settings: 1 µM CHMFL-074; read-out: % Control
T2 construct: purchased DiscoveRx (KinomeScan service)

[4] = tested on: normal human B-cells purified from the peripheral blood; assay: Proliferation assay on normal cells from peripheral blood; assay type: cell-based; settings: at 1 μM
Description: Mononuclear cells were isolated from CML patients or healthy donors by density-gradient centrifugation through Ficoll (Beijing Solarbio Science & Technology Co., Ltd., Beijing, China) at 400 g for 30 min, followed by two washes in 1× phosphate-buffered saline. Cells were then cultured in liquid culture (RPMI1640, supplemented with 20% FBS). All blood samples from CML patients and healthy donors were obtained through written consent under approval of the Chinese Academy of Sciences Institutional Review Board. The ethics committees approved the consent Procedure. CML primary patient cells were tested in liquid culture (RPMI1640, supplemented with 20% FBS) in the presence of different concentrations of CHMFL-074. The trypan blue exclusion assay was used for quantification of cells for seeding for before Cell-Titer Glo assays (Promega, USA). The Cell-Titer Glo assay was used for proliferation studies and carried out according to manufacturer's instructions. Cell viability is reported as percentages of control (untreated) cells.

[5] = molecular target: T3, ABL1(E255K)-phosphorylated (Homo sapiens, UniProt P00519, E255K); assay: KinomeScan profiling; assay type: binding; settings: 1 µM CHMFL-074; read-out: % Control
T3 construct: purchased DiscoveRx (KinomeScan service)

ABL1 kinase = molecular target: T4, ABL1 kinase (Homo sapiens, UniProt P00519); assay: Microscale thermophoresis (MST) binding Kd assay; settings: binding Kd against ABL1 kinase
T4 construct: A construct encoding c-ABL residues 229–500 with a His tag; made in house; host or cells: SF9 insect cells (baculovirus, pFASTHTA)
Description: A construct encoding c-ABL residues 229–500 with a His tag was cloned into baculovirus expression vector pFASTHTA. The protein was expressed by infecting SF9 cells with high titer viral stocks for 48 hours. Cells were harvested and lysed in 30 mM Tris pH 7.4, 150 mM NaCl, 3 mM KCl, 10% glycerol, 1 mM PMSF, 2 mM TCEP, 1 mM ADP, 20 mM Imidazole. The supernatant was loaded to Ni-NTA Column (QIAGEN, 1018244). Then the proteins were gradient washed using the same buffer with 50 mM, 100 mM imidazole, then the ABL protein was eluted with Elution buffer (20 mM Tris, 500 mM NaCl, 1% glycerol, 1 mM TCEP, 0.5 mM ADP, 300 mM Imidazole, pH 8.0). The eluted protein was loaded on desalt column PD-10(GE) to change the buffer to 20 mM Tris, 500 mM NaCl, 1% glycerol, 2 mM TCEP, pH 8.0. The protein was concentrated to 1 mg/ml and aliquots were frozen and stored at −80 °C.
The Kd was measured using the Monolith NT.115 from Nanotemper Technologies. Proteins were fluorescently labeled according to the manufacturer's protocol. […] The sample was loaded into the NanoTemper glass capillaries and microthermophoresis carried out using 20% LED power and 30% MST Power. KD were calculated using the mass action equation via the NanoTemper software from duplicate reads of triplicate experiments.

K562 tumor xenografts = assay: K562 xenograft tumor model; assay type: in vivo
From the text: Five-week old female nu/nu mice were purchased from the Shanghai Experimental Center, Chinese Science Academy (Shanghai, China). All animals were housed in a specific pathogen-free facility and used according to the animal care regulations of Hefei Institutes of Physical Science Chinese Academy of Sciences. Prior to implantation, cells were harvested during exponential growth. Five million K562 cells in PBS were formulated as a 1:1 mixture with Matrigel (BD Biosciences) and injected into the subcutaneous space on the right flank of nu/nu mice. Daily oral administration was initiated when K562 tumors had reached a size of 200 to 300 mm^3. Animals were then randomized into treatment groups of 6 mice each for efficacy studies. CHMFL-074 was delivered daily in a HKI solution (0.5% Methocellulose/0.4% Tween 80 in dd H2O) by orally gavage. Body weight was measured daily and tumor growth was measured every day after CHMFL-074 treatment. Tumor volumes were calculated as follows: tumor volume (mm^3) = [(W^2 × L)/2] in which width (W) is defined as the smaller of the two measurements and length (L) is defined as the larger of the two measurements.

[6] = molecular target: T5, ABL1(H396P)-nonphosphorylated (Homo sapiens, UniProt P00519, H396P); assay: KinomeScan profiling; assay type: binding; settings: 1 µM CHMFL-074; read-out: % Control
T5 construct: purchased DiscoveRx (KinomeScan service)

ABL1-nonphosphorylated = molecular target: T6, ABL1-nonphosphorylated (Homo sapiens, UniProt P00519); assay: KinomeScan profiling; assay type: binding; settings: 1 µM CHMFL-074; read-out: % Control
T6 construct: purchased DiscoveRx (KinomeScan service)

ABL1-phosphorylated = molecular target: T7, ABL1-phosphorylated (Homo sapiens, UniProt P00519); assay: KinomeScan profiling; assay type: binding; settings: 1 µM CHMFL-074; read-out: % Control
T7 construct: purchased DiscoveRx (KinomeScan service)

Cc1ccc(NC(=O)c2ccc(CN3CCN(C)CC3)c(C(F)(F)F)c2)cc1OC1CCN(C(=O)c2cccnc2)CC1 [CHMFL-074]
remaining binding at 1 µM [1]: 0.3%
concentration inducing G0/G1 phase cell cycle arrest [2]: ≥ 0.3 µM
EC50 (MEG-01; 360 h, MEG-01, soft agar, 15 days): 12 nM
IC50 (MEG-01; MEG-01, read-out: anti-colony formation IC50): 12 nM
EC50 (K562; 360 h, K562, soft agar, 15 days): 4 nM
IC50 (K562; K562, read-out: anti-colony formation IC50): 4 nM
EC50 (KU812; 360 h, KU812, soft agar, 15 days): 8 nM
IC50 (KU812; KU812, read-out: anti-colony formation IC50): 8 nM
remaining binding at 1 µM [3]: 0.4%
inhibitory activity against normal human B-cells [4]: did not show any inhibitory activities
remaining binding at 1 µM [5]: 0.3%
Kd (ABL1 kinase): 24 nM and 24.2 nM
TGI (tumor growth inhibition) (K562 tumor xenografts; 100 mg/kg/d oral, 12-day treatment): 65%
toxicity in xenograft mice (K562 tumor xenografts; 100 mg/kg/day oral): without exhibiting apparent toxicity; also recorded: no apparent toxicity was observed
remaining binding at 1 µM [6]: 0.15%
remaining binding at 1 µM (ABL1-nonphosphorylated): 0.25%
remaining binding at 1 µM (ABL1-phosphorylated): 0.2%
